Source: the supplement of paper PMC10307832

Experiments:
Assay in all cases: relative viability (nuclei count vs DMSO), 5 days (fraction); higher = more cells survive
[1] = tested on: HCC-78
In short: (§1)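 Medians of duplicate plates are given as relative viability. That measure is the nuclei count in treated wells divided by the count in vehicle wells. Counts were taken on 4× images of lung cancer cell lines in 1536-well plates, 5 days after pin-tool dosing the day after seeding with one drug alone or a fixed anchor-drug dose plus five library-drug doses (not always all listed) in √10 steps.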

[2] = tested on: NCI-H2228
In short: as §1

[3] = tested on: NCI-H460
In short: as §1

[4] = tested on: NCI-H358
In short: as §1

[5] = tested on: RERF-LC-KJ
In short: as §1

[6] = tested on: NCI-H2347
In short: as §1

[7] = tested on: NCI-H1734
In short: as §1

[8] = tested on: PC-3 [JPC-3]
In short: as §1

[9] = tested on: LXF-289
In short: as §1

[10] = tested on: HOP-62
In short: as §1

[11] = tested on: NCI-H647
In short: as §1

[12] = tested on: A-427
In short: as §1

[13] = tested on: SW 1573
In short: as §1

[14] = tested on: LOU-NH91
In short: as §1

[15] = tested on: LC-2-ad
In short: as §1

[16] = tested on: NCI-H1975
In short: as §1

[17] = tested on: NCI-H1915
In short: as §1

[18] = tested on: NCI-H1792
In short: as §1

[19] = tested on: NCI-H2126
In short: as §1

[20] = tested on: SK-LU-1
In short: as §1

[21] = tested on: HCC-15
In short: as §1

[22] = tested on: NCI-H1755
In short: as §1

COc1cc(N2CCC(C(N)=O)CC2)ccc1Nc1nc(N)c(Cl)c(Nc2ccccc2S(=O)(=O)C(C)C)n1 [HG-5-88-01] + C[C@]1(O)C[C@@H](c2nc(-c3ccc4ccc(-c5ccccc5)nc4c3)c3c(N)nccn32)C1 [Linsitinib] (partner 1 µM)
relative viability ([1]; first compound 0.04 µM): 0.574
relative viability ([1]; first compound 0.1265 µM): 0.401
relative viability ([1]; first compound 0.4 µM): 0.273
relative viability ([1]; first compound 1.265 µM): 0.222
relative viability ([1]; first compound 4 µM): 0.263
relative viability ([2]; first compound 0.04 µM): 0.234
relative viability ([2]; first compound 0.1265 µM): 0.382
relative viability ([2]; first compound 0.4 µM): 0.389
relative viability ([2]; first compound 1.265 µM): 0.41
relative viability ([2]; first compound 4 µM): 0.315
relative viability ([3]; first compound 0.04 µM): 0.73
relative viability ([3]; first compound 0.1265 µM): 0.81
relative viability ([3]; first compound 0.4 µM): 0.784
relative viability ([3]; first compound 1.265 µM): 0.81
relative viability ([3]; first compound 4 µM): 1.41
relative viability ([4]; first compound 0.04 µM): 0.696
relative viability ([4]; first compound 0.1265 µM): 0.707
relative viability ([4]; first compound 0.4 µM): 0.625
relative viability ([4]; first compound 1.265 µM): 0.484
relative viability ([4]; first compound 4 µM): 0.387
relative viability ([5]; first compound 0.04 µM): 0.823
relative viability ([5]; first compound 0.1265 µM): 0.897
relative viability ([5]; first compound 0.4 µM): 0.849
relative viability ([5]; first compound 1.265 µM): 0.864
relative viability ([5]; first compound 4 µM): 0.539
relative viability ([6]; first compound 0.04 µM): 0.988
relative viability ([6]; first compound 0.1265 µM): 0.933
relative viability ([6]; first compound 0.4 µM): 1.1
relative viability ([6]; first compound 1.265 µM): 0.959
relative viability ([6]; first compound 4 µM): 1.03
relative viability ([7]; first compound 0.04 µM): 0.811
relative viability ([7]; first compound 0.1265 µM): 0.851
relative viability ([7]; first compound 0.4 µM): 0.964
relative viability ([7]; first compound 1.265 µM): 0.885
relative viability ([7]; first compound 4 µM): 1.02
relative viability ([8]; first compound 0.04 µM): 0.964
relative viability ([8]; first compound 0.1265 µM): 0.956
relative viability ([8]; first compound 0.4 µM): 0.947
relative viability ([8]; first compound 1.265 µM): 0.944
relative viability ([8]; first compound 4 µM): 0.83
relative viability ([9]; first compound 0.04 µM): 0.94
relative viability ([9]; first compound 0.1265 µM): 1
relative viability ([9]; first compound 0.4 µM): 0.961
relative viability ([9]; first compound 1.265 µM): 0.973
relative viability ([9]; first compound 4 µM): 1.04
relative viability ([10]; first compound 0.04 µM): 0.978
relative viability ([10]; first compound 0.1265 µM): 1.04
relative viability ([10]; first compound 0.4 µM): 0.821
relative viability ([10]; first compound 1.265 µM): 0.938
relative viability ([10]; first compound 4 µM): 1.23
relative viability ([11]; first compound 0.04 µM): 1.21
relative viability ([11]; first compound 0.1265 µM): 1.38
relative viability ([11]; first compound 1.265 µM): 1.08
relative viability ([11]; first compound 4 µM): 1.12
relative viability ([12]; first compound 0.04 µM): 1.07
relative viability ([12]; first compound 0.1265 µM): 1.11
relative viability ([12]; first compound 0.4 µM): 1.15
relative viability ([12]; first compound 1.265 µM): 1.14
relative viability ([12]; first compound 4 µM): 1.09
relative viability ([13]; first compound 0.04 µM): 0.796
relative viability ([13]; first compound 0.1265 µM): 0.961
relative viability ([13]; first compound 0.4 µM): 0.855
relative viability ([13]; first compound 1.265 µM): 0.704
relative viability ([13]; first compound 4 µM): 0.83
relative viability ([14]; first compound 0.04 µM): 1
relative viability ([14]; first compound 0.1265 µM): 0.916
relative viability ([14]; first compound 0.4 µM): 0.841
relative viability ([14]; first compound 1.265 µM): 0.609
relative viability ([14]; first compound 4 µM): 0.659
relative viability ([15]; first compound 0.04 µM): 0.817
relative viability ([15]; first compound 0.1265 µM): 0.861
relative viability ([15]; first compound 0.4 µM): 0.862
relative viability ([15]; first compound 1.265 µM): 0.852
relative viability ([15]; first compound 4 µM): 0.92
relative viability ([16]; first compound 0.04 µM): 0.995
relative viability ([16]; first compound 0.1265 µM): 1
relative viability ([16]; first compound 0.4 µM): 0.682
relative viability ([16]; first compound 1.265 µM): 0.859
relative viability ([16]; first compound 4 µM): 0.497
relative viability ([17]; first compound 0.04 µM): 1.09
relative viability ([17]; first compound 0.1265 µM): 1.11
relative viability ([17]; first compound 0.4 µM): 1.14
relative viability ([17]; first compound 1.265 µM): 1.15
relative viability ([17]; first compound 4 µM): 0.674
relative viability ([18]; first compound 0.04 µM): 0.711
relative viability ([18]; first compound 0.1265 µM): 0.513
relative viability ([18]; first compound 0.4 µM): 0.515
relative viability ([18]; first compound 1.265 µM): 0.561
relative viability ([18]; first compound 4 µM): 0.818
relative viability ([19]; first compound 0.04 µM): 0.641
relative viability ([19]; first compound 0.1265 µM): 0.76
relative viability ([19]; first compound 0.4 µM): 0.721
relative viability ([19]; first compound 1.265 µM): 0.69
relative viability ([19]; first compound 4 µM): 0.716
relative viability ([20]; first compound 0.04 µM): 1.02
relative viability ([20]; first compound 0.1265 µM): 1
relative viability ([20]; first compound 0.4 µM): 1.09
relative viability ([20]; first compound 1.265 µM): 1.21
relative viability ([20]; first compound 4 µM): 0.996
relative viability ([21]; first compound 0.04 µM): 0.862
relative viability ([21]; first compound 0.1265 µM): 0.837
relative viability ([21]; first compound 0.4 µM): 0.92
relative viability ([21]; first compound 1.265 µM): 0.835
relative viability ([21]; first compound 4 µM): 0.763
relative viability ([22]; first compound 0.1265 µM): 0.902
relative viability ([22]; first compound 0.4 µM): 1.01
relative viability ([22]; first compound 1.265 µM): 0.983
relative viability ([22]; first compound 4 µM): 1.09
